Key:
MCF7 cell line = assay: Signature-free query for agents with biological activity similar to estradiol in cell line MCF7 (FIG. 15); type: cell-based; conditions: cell line MCF7 (expresses estrogen receptors); top five and bottom five chemicals
From the text: Using the projection space matrix, it is possible to determine the similarity (or difference) between gene expression profiles in the projection space. The methods 100 and 110, for example, perform queries for similar biological activity (block 108) and biological dissimilarity (i.e., agents most likely to reverse a clinical endpoint) (block 112), respectively, by looking at the distances between instances depicted in the projection space matrix. Turning first to the method 100, FIG. 9 depicts a method 140 for performing a query for similar biological activity between instances mapping to two points in the projection space (e.g., for performing a query for similar activity between perturbagens) (block 108). […]
A query perturbagen (also referred to as a query agent) is then selected from the perturbagens in the projection space matrix (block 144). […] The distance from the query perturbagen in the projection space is calculated for each instance (or for a selected subset of instances) in the projection space matrix (block 146). In some embodiments, the distance is calculated as a cosine distance. In some embodiments, the distance is calculated as a Euclidean distance. […]
With reference to FIGS. 15 and 16, the effect of different perturbagens on different cell types at the transcriptional level is readily apparent. […]

[1] = tested on: dandruff average condition profile; assay: Signature-free query for agents with gene expression profiles most different from a query condition (dandruff) (FIG. 17); conditions: greater distance = more likely to reverse the condition
From the text: Turning next to the method 110, FIG. 10 depicts a method 150 for performing a query for perturbagens eliciting a biological response that is dissimilar to that induced by a condition (e.g., chemicals likely to reverse a particular condition in a cell) (block 112). The method includes determining an average condition profile to use as a query (block 152), as described above. Specifically, the average condition profile (also referred to as an “adjusted condition gene expression profile”) may be calculated by finding the average expression value for each of the subset of probes used to learn the expression matrix. That is, if all of probes ID1-IDN (referring to FIG. 13) were used to learn the expression matrix, the average expression profile for a condition tested in instances 3A-10A and 3B-10B would include an average expression value for probe ID1: The average condition profile is projected onto the projection space (block 154). The distance from the average condition profile to each of the perturbagens in the projection space matrix is determined (block 156) and, at least in some embodiments, the perturbagens are ranked according to the distance of each in the projection space from the average condition profile (block 158). In some embodiments, the distance is calculated as a cosine distance. In some embodiments, the distance is calculated as a Euclidean distance. […]

SMILES	ranking according to distance from query perturbagen estradiol (MCF7 cell line)	ranking according to distance from the query condition [1]
CCN(CC)CCOc1ccc(C(=C(Cl)c2ccccc2)c2ccccc2)cc1 [Clomifene]	most dissimilar	
C[C@]12CC[C@@H]3c4ccc(O)cc4C[C@@H](CCCCCCCCC[S+]([O-])CCCC(F)(F)C(F)(F)F)[C@H]3[C@@H]1CC[C@@H]2O (stereo partly shown) [Fulvestrant]	most dissimilar	
CC(=O)N1CCN(c2ccc(OCC3COC(Cn4ccnc4)(c4ccc(Cl)cc4Cl)O3)cc2)CC1 (stereo not shown) [Ketocanozole]		more distant from the query condition
CC(C)(C)C(=O)C(Oc1ccc(Cl)cc1)n1ccnc1 (stereo not shown) [Climbazole]		more distant from the query condition

From patent US20170140097A1, “Methods For Identifying Agents With Desired Biological Activity” (The Procter & Gamble Company, priority 2012, published 2017)
